# System: patients with COPD
# Assay: Pulmonary function tests (spirometry FEV1, FVC), tetomilast with inhaled albuterol, crossover study (Example 1)
# Format: in vivo, human
# Settings: for Estimated Treatment Effect, change from baseline in FEV1 (tetomilast versus placebo) / Estimated Treatment Effect, change from baseline in FVC (tetomilast versus placebo) / LS Mean change from baseline in FEV1 (repeated measures ANOVA) / LS Mean change from baseline in FVC (repeated measures ANOVA) / Mean (SD) change from baseline in FEV1 / Mean (SD) change from baseline in FVC: steady-state (predose) baseline, Day 8/23; for Estimated Treatment Effect, change from baseline in FEV1 (tetomilast versus placebo) / Estimated Treatment Effect, change from baseline in FVC (tetomilast versus placebo): both with inhaled albuterol; for LS Mean change from baseline in FEV1 (repeated measures ANOVA) / LS Mean change from baseline in FVC (repeated measures ANOVA) / Mean (SD) change from baseline in FEV1 / Mean (SD) change from baseline in FVC: tetomilast 50 mg QD + inhaled albuterol
# Protocol: Pulmonary function tests were conducted throughout the study to monitor the subjects' respiratory status. Flow volume curves were collected via spirometry. Combivent® (Boehringer Ingleheim Pharmaceuticals, Inc., Ridgefield Conn.), which was used for short-acting rescues as needed throughout the studies described below, was withheld for 6 hours prior to any spirometric testing. Spirometry testing was performed at screening, baseline (Day 0), and at specific times during the treatment period. Each subject could have up to 5 spirometric readings at any study time point. Spirometric readings were performed using equipment from the central provider, Quantum Research, Inc. (Louisville, Colo.). All spirometry readings were recorded and sent to Quantum Research, Inc. for analysis
# For the spirometric readings, the best effort was reported as follows. The highest acceptable forced expiratory volume in one second (FEV1) value was selected as the “best” of the given test session. If two or more FEV1 values were tied as highest, the sum of FEV1 and forced vital capacity (FVC) for those efforts was used. If both conditions were equal between the two efforts, the values reported were taken from the effort that occurred first, chronologically, based on date and time of the effort.
# This study was a multicenter, randomized, double-blind, placebo-controlled, crossover, multiple dose, outpatient study in 27 patients with COPD. All subjects underwent a 28-day washout from inhaled corticosteroids and/or long-acting bronchodilators and/or continuous oxygen therapy (≧16 hours per day) and a 7-day washout from oral beta2-agonists and/or oral theophylline salts prior to baseline. Randomized subjects received an 8-day administration of oral placebo or tetomilast 50 mg oral dose (2×25 mg tablets) once daily (QD). On study Day 8, four consecutive doses of inhaled albuterol (90 μg albuterol base per puff) were given via a metered dose inhaler (MDI) and holding chamber (Ventolin®, GlaxoSmithKline, Research Triangle Park, N.C.), one dose every 30 minutes over the course of 90 minutes at doses of 90 μg+90 μg+180 μg+360 μg for a total dose of 720 μg (albuterol base) or 8 puffs.
# Subjects entered a 7-day washout period (study days 9 through 15) and were then crossed over to the alternate treatment arm (placebo or tetomilast 50 mg oral dose). On study [0105] Day 23, the inhaled albuterol multiple dosing was repeated.
# On Days 1-6 and 17-21, subjects were instructed to take their oral study medication (placebo or tetomilast 50 mg) QD with 8 ounces of water immediately before breakfast. Subjects assigned to the placebo arm received two placebo tablets QD. On Days 7, 8, 16, 22, and 23, subjects took their oral medication (placebo or tetomilast 50 mg) at the clinic in the presence of the study staff.
# Combivent® inhalation aerosol use was allowed for short-acting rescue as needed throughout the study except on study days where PK samples were collected, on days when the multiple doses of inhaled albuterol were administered in the clinic, and/or on days when spirometry testing was performed. On all study days where PK samples were collected, Combivent® was withheld 6 hours prior to the PK draw. Additionally, on study Days 8 and 23 (when the multiple doses of inhaled albuterol were administered in the clinic), Combivent® was withheld 6 hours prior to PK assessment and throughout the duration of the clinic visit. Combivent® was withheld for six hours prior to spirometry testing. The recommended dose of Combivent® Inhalation Aerosol is two inhalations four times a day. In this study, subjects were permitted to take additional inhalations as required; however, the total number of inhalations was not to exceed 12 in 24 hours. Subjects were to “test-spray” three times before using for the first time and in cases where the aerosol had not been used for more than 24 hours. […]
structure (smiles),measurement,setting,value
"CCOc1ccc(-c2nc(-c3cccc(C(=O)O)n3)cs2)cc1OCC [Tetomilast, 2-(3,4-diethoxyphenyl)-4-(2-carboxy-6-pyridyl)thiazole]","FVC steady-state (predose) baseline value, Mean (SD)","predose Day 8/23, on tetomilast 50 mg QD, prior to inhaled albuterol",2.67 (0.88) L
same,"FEV1 steady-state (predose) baseline value, Mean","predose Day 8/23, on tetomilast 50 mg QD, prior to inhaled albuterol, Table 3",1.40 L
same,"FVC steady-state (predose) baseline value, Mean","predose Day 8/23, on tetomilast 50 mg QD, prior to inhaled albuterol, Table 4",2.67 L
same,"Estimated Treatment Effect, change from baseline in FEV1 (tetomilast versus placebo)",5 min postdose,-0.01 L
same,"Estimated Treatment Effect, change from baseline in FVC (tetomilast versus placebo)",5 min postdose,0.01 L
same,LS Mean change from baseline in FEV1 (repeated measures ANOVA),5 min postdose,0.16 L
same,LS Mean change from baseline in FVC (repeated measures ANOVA),5 min postdose,0.30 L
same,Mean (SD) change from baseline in FEV1,5 min postdose,0.16 (0.09) L
same,Mean (SD) change from baseline in FVC,5 min postdose,0.27 (0.25) L
same,"Estimated Treatment Effect, change from baseline in FEV1 (tetomilast versus placebo)",25 min postdose,0.03 L
same,"Estimated Treatment Effect, change from baseline in FVC (tetomilast versus placebo)",25 min postdose,0.03 L
same,LS Mean change from baseline in FEV1 (repeated measures ANOVA),25 min postdose,0.19 L
same,LS Mean change from baseline in FVC (repeated measures ANOVA),25 min postdose,0.29 L
same,Mean (SD) change from baseline in FEV1,25 min postdose,0.19 (0.16) L
same,Mean (SD) change from baseline in FVC,25 min postdose,0.29 (0.37) L
same,"Estimated Treatment Effect, change from baseline in FEV1 (tetomilast versus placebo)",35 min postdose,0.03 L
same,"Estimated Treatment Effect, change from baseline in FVC (tetomilast versus placebo)",35 min postdose,0.01 L
same,LS Mean change from baseline in FEV1 (repeated measures ANOVA),35 min postdose,0.24 L
same,LS Mean change from baseline in FVC (repeated measures ANOVA),35 min postdose,0.39 L
same,Mean (SD) change from baseline in FEV1,35 min postdose,0.24 (0.18) L
same,Mean (SD) change from baseline in FVC,35 min postdose,0.39 (0.36) L
same,"Estimated Treatment Effect, change from baseline in FEV1 (tetomilast versus placebo)",55 min postdose,0.05 L
same,"Estimated Treatment Effect, change from baseline in FVC (tetomilast versus placebo)",55 min postdose,0.07 L
same,LS Mean change from baseline in FEV1 (repeated measures ANOVA),55 min postdose,0.27 L
same,LS Mean change from baseline in FVC (repeated measures ANOVA),55 min postdose,0.37 L
same,Mean (SD) change from baseline in FEV1,55 min postdose,0.26 (0.20) L
same,Mean (SD) change from baseline in FVC,55 min postdose,0.36 (0.37) L
same,"Estimated Treatment Effect, change from baseline in FEV1 (tetomilast versus placebo)",65 min postdose,0.06 L
same,"Estimated Treatment Effect, change from baseline in FVC (tetomilast versus placebo)",65 min postdose,0.13 L
same,LS Mean change from baseline in FEV1 (repeated measures ANOVA),65 min postdose,0.30 L
same,LS Mean change from baseline in FVC (repeated measures ANOVA),65 min postdose,0.50 L
same,Mean (SD) change from baseline in FEV1,65 min postdose,0.30 (0.20) L
same,Mean (SD) change from baseline in FVC,65 min postdose,0.50 (0.40) L
same,"Estimated Treatment Effect, change from baseline in FEV1 (tetomilast versus placebo)",85 min postdose,0.05 L
same,"Estimated Treatment Effect, change from baseline in FVC (tetomilast versus placebo)",85 min postdose,0.05 L
same,LS Mean change from baseline in FEV1 (repeated measures ANOVA),85 min postdose,0.31 L
same,LS Mean change from baseline in FVC (repeated measures ANOVA),85 min postdose,0.45 L
same,Mean (SD) change from baseline in FEV1,85 min postdose,0.31 (0.20) L
same,Mean (SD) change from baseline in FVC,85 min postdose,0.45 (0.39) L
same,"Estimated Treatment Effect, change from baseline in FEV1 (tetomilast versus placebo)",95 min postdose,0.05 L
same,"Estimated Treatment Effect, change from baseline in FVC (tetomilast versus placebo)",95 min postdose,0.12 L
same,LS Mean change from baseline in FEV1 (repeated measures ANOVA),95 min postdose,0.34 L
same,LS Mean change from baseline in FVC (repeated measures ANOVA),95 min postdose,0.53 L
same,Mean (SD) change from baseline in FEV1,95 min postdose,0.34 (0.21) L
same,Mean (SD) change from baseline in FVC,95 min postdose,0.53 (0.42) L
same,"Estimated Treatment Effect, change from baseline in FEV1 (tetomilast versus placebo)",115 min postdose,0.05 L
same,"Estimated Treatment Effect, change from baseline in FVC (tetomilast versus placebo)",115 min postdose,0.11 L
same,LS Mean change from baseline in FEV1 (repeated measures ANOVA),115 min postdose,0.33 L
same,LS Mean change from baseline in FVC (repeated measures ANOVA),115 min postdose,0.51 L
same,Mean (SD) change from baseline in FEV1,115 min postdose,0.33 (0.20) L
same,Mean (SD) change from baseline in FVC,115 min postdose,0.51 (0.48) L
same,"Estimated Treatment Effect, change from baseline in FEV1 (tetomilast versus placebo)",175 min postdose,0.06 L
same,"Estimated Treatment Effect, change from baseline in FVC (tetomilast versus placebo)",175 min postdose,0.07 L
same,LS Mean change from baseline in FEV1 (repeated measures ANOVA),175 min postdose,0.34 L
same,LS Mean change from baseline in FVC (repeated measures ANOVA),175 min postdose,0.50 L
same,Mean (SD) change from baseline in FEV1,175 min postdose,0.34 (0.21) L
same,Mean (SD) change from baseline in FVC,175 min postdose,0.50 (0.38) L
same,"Estimated Treatment Effect, change from baseline in FEV1 (tetomilast versus placebo)",235 min postdose,0.04 L
same,"Estimated Treatment Effect, change from baseline in FVC (tetomilast versus placebo)",235 min postdose,0.01 L
same,LS Mean change from baseline in FEV1 (repeated measures ANOVA),235 min postdose,0.32 L
same,LS Mean change from baseline in FVC (repeated measures ANOVA),235 min postdose,0.39 L
same,Mean (SD) change from baseline in FEV1,235 min postdose,0.32 (0.25) L
same,Mean (SD) change from baseline in FVC,235 min postdose,0.40 (0.50) L
same,"Estimated Treatment Effect, change from baseline in FEV1 (tetomilast versus placebo)",295 min postdose,0.03 L
same,"Estimated Treatment Effect, change from baseline in FVC (tetomilast versus placebo)",295 min postdose,0.11 L
same,LS Mean change from baseline in FEV1 (repeated measures ANOVA),295 min postdose,0.23 L
same,LS Mean change from baseline in FVC (repeated measures ANOVA),295 min postdose,0.35 L
same,Mean (SD) change from baseline in FEV1,295 min postdose,0.23 (0.26) L
same,Mean (SD) change from baseline in FVC,295 min postdose,0.35 (0.50) L
same,"Estimated Treatment Effect, change from baseline in FEV1 (tetomilast versus placebo)",355 min postdose,0.11 L
same,"Estimated Treatment Effect, change from baseline in FVC (tetomilast versus placebo)",355 min postdose,0.17 L
same,LS Mean change from baseline in FEV1 (repeated measures ANOVA),355 min postdose,0.23 L
same,LS Mean change from baseline in FVC (repeated measures ANOVA),355 min postdose,0.32 L
same,Mean (SD) change from baseline in FEV1,355 min postdose,0.23 (0.22) L
same,Mean (SD) change from baseline in FVC,355 min postdose,0.32 (0.43) L

# Source: US20120010179A1, “Methods of using a thiazole derivative” (priority 2006, published 2012)
